From the supplement of paper PMC10307832

Legend:
Experiment in all cases: relative viability (nuclei count vs DMSO), 5 days (fraction); higher = more cells survive
NCI-H1792 = tested on: NCI-H1792
Outline: (§1)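 For relative viability, nuclei counts in treated wells were divided by those in vehicle wells. Lung cancer cell lines had been pin-tool dosed in 1536-well plates the day after seeding and cultured for 5 days, then fixed and stained in one step (final 0.05% Triton X-100, 1% formaldehyde, 1 ug/ml Hoechst) and imaged at 4×. Doses were one drug alone or a fixed anchor-drug dose plus five library-drug doses (not always all listed) in √10 steps, and values are duplicate-plate medians.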

NCI-H2009 = tested on: NCI-H2009
Outline: as §1

NCI-H2087 = tested on: NCI-H2087
Outline: as §1

NCI-H2170 = tested on: NCI-H2170
Outline: as §1

NCI-H2228 = tested on: NCI-H2228
Outline: as §1

NCI-H2405 = tested on: NCI-H2405
Outline: as §1

NCI-H596 = tested on: NCI-H596
Outline: as §1

NCI-H647 = tested on: NCI-H647
Outline: as §1

NCI-H661 = tested on: NCI-H661
Outline: as §1

SK-LU-1 = tested on: SK-LU-1
Outline: as §1

SK-MES-1 = tested on: SK-MES-1
Outline: as §1

C=C1C(=O)O[C@@H](CCCCCCCC)[C@@H]1C(=O)O [C-75] + Cc1nc(NC(=O)N2CCC[C@H]2C(N)=O)sc1-c1ccnc(C(C)(C)C(F)(F)F)c1 [Alpelisib] (partner 2 µM)
relative viability (NCI-H1792; first compound 0.253 µM): 0.728 | relative viability (NCI-H1792; first compound 0.8 µM): 0.687 | relative viability (NCI-H1792; first compound 2.53 µM): 0.581 | relative viability (NCI-H1792; first compound 8 µM): 0.673 | relative viability (NCI-H2009; first compound 0.08 µM): 1.17 | relative viability (NCI-H2009; first compound 0.253 µM): 1.14 | relative viability (NCI-H2009; first compound 0.8 µM): 1.18 | relative viability (NCI-H2009; first compound 2.53 µM): 1.14 | relative viability (NCI-H2009; first compound 8 µM): 1.03 | relative viability (NCI-H2087; first compound 0.08 µM): 1.07 | relative viability (NCI-H2087; first compound 0.253 µM): 0.921 | relative viability (NCI-H2087; first compound 0.8 µM): 1.02 | relative viability (NCI-H2087; first compound 2.53 µM): 0.682 | relative viability (NCI-H2087; first compound 8 µM): 0.934 | relative viability (NCI-H2170; first compound 0.08 µM): 0.796 | relative viability (NCI-H2170; first compound 0.253 µM): 0.779 | relative viability (NCI-H2170; first compound 0.8 µM): 0.776 | relative viability (NCI-H2170; first compound 2.53 µM): 0.741 | relative viability (NCI-H2170; first compound 8 µM): 0.713 | relative viability (NCI-H2228; first compound 0.08 µM): 0.751 | relative viability (NCI-H2228; first compound 0.253 µM): 1.01 | relative viability (NCI-H2228; first compound 0.8 µM): 0.73 | relative viability (NCI-H2228; first compound 2.53 µM): 0.604 | relative viability (NCI-H2228; first compound 8 µM): 0.744 | relative viability (NCI-H2405; first compound 0.08 µM): 0.833 | relative viability (NCI-H2405; first compound 0.253 µM): 0.481 | relative viability (NCI-H2405; first compound 0.8 µM): 0.703 | relative viability (NCI-H2405; first compound 2.53 µM): 0.884 | relative viability (NCI-H2405; first compound 8 µM): 0.816 | relative viability (NCI-H596; first compound 0.08 µM): 0.51 | relative viability (NCI-H596; first compound 0.253 µM): 0.663 | relative viability (NCI-H596; first compound 0.8 µM): 0.476 | relative viability (NCI-H596; first compound 2.53 µM): 0.525 | relative viability (NCI-H596; first compound 8 µM): 0.54 | relative viability (NCI-H647; first compound 0.08 µM): 0.972 | relative viability (NCI-H647; first compound 0.253 µM): 1.28 | relative viability (NCI-H647; first compound 2.53 µM): 1 | relative viability (NCI-H647; first compound 8 µM): 0.643 | relative viability (NCI-H661; first compound 0.08 µM): 0.545 | relative viability (NCI-H661; first compound 0.253 µM): 0.477 | relative viability (NCI-H661; first compound 0.8 µM): 0.657 | relative viability (NCI-H661; first compound 2.53 µM): 0.409 | relative viability (NCI-H661; first compound 8 µM): 0.718 | relative viability (SK-LU-1; first compound 0.08 µM): 1.04 | relative viability (SK-LU-1; first compound 0.253 µM): 1.23 | relative viability (SK-LU-1; first compound 0.8 µM): 0.909 | relative viability (SK-LU-1; first compound 2.53 µM): 1.02 | relative viability (SK-LU-1; first compound 8 µM): 0.552 | relative viability (SK-MES-1; first compound 0.08 µM): 1.1 | relative viability (SK-MES-1; first compound 0.253 µM): 0.876 | relative viability (SK-MES-1; first compound 0.8 µM): 0.902 | relative viability (SK-MES-1; first compound 2.53 µM): 0.864 | relative viability (SK-MES-1; first compound 8 µM): 0.792
